{"source": "the NIST ThermoML archive (doi:10.1007/s10765-012-1370-2)", "assay": "xn = mol fraction of the nth substance listed", "settings": "Liquid, Bellows volumetry", "note": "Numbers after ± are expanded uncertainties.", "data": [{"smiles": "CCC", "note": "[propane] + O=C=O", "values": [{"measurement": "mass density", "setting": "360 K, 60000 kPa, x2 = 0.3863", "result": "617.66 ± 1.3", "unit": "kg/m3"}, {"measurement": "mass density", "setting": "360 K, 60000 kPa, x2 = 0.5837", "result": "677.69 ± 1.4", "unit": "kg/m3"}, {"measurement": "mass density", "setting": "360 K, 60000 kPa, x2 = 0.7732", "result": "755.67 ± 1.6", "unit": "kg/m3"}, {"measurement": "mass density", "setting": "360 K, 70000 kPa, x2 = 0.1744", "result": "581.28 ± 1.2", "unit": "kg/m3"}, {"measurement": "mass density", "setting": "360 K, 70000 kPa, x2 = 0.3863", "result": "633.44 ± 1.3", "unit": "kg/m3"}, {"measurement": "mass density", "setting": "360 K, 70000 kPa, x2 = 0.5837", "result": "697.37 ± 1.4", "unit": "kg/m3"}, {"measurement": "mass density", "setting": "360 K, 70000 kPa, x2 = 0.7732", "result": "780.83 ± 1.6", "unit": "kg/m3"}, {"measurement": "mass density", "setting": "360 K, 80000 kPa, x2 = 0.1744", "result": "592.36 ± 1.2", "unit": "kg/m3"}, {"measurement": "mass density", "setting": "360 K, 80000 kPa, x2 = 0.3863", "result": "647.34 ± 1.3", "unit": "kg/m3"}, {"measurement": "mass density", "setting": "360 K, 80000 kPa, x2 = 0.5837", "result": "714.31 ± 1.5", "unit": "kg/m3"}, {"measurement": "mass density", "setting": "360 K, 80000 kPa, x2 = 0.7732", "result": "802.2 ± 1.7", "unit": "kg/m3"}, {"measurement": "mass density", "setting": "360 K, 90000 kPa, x2 = 0.1744", "result": "602.5 ± 1.2", "unit": "kg/m3"}, {"measurement": "mass density", "setting": "360 K, 90000 kPa, x2 = 0.3863", "result": "659.51 ± 1.4", "unit": "kg/m3"}, {"measurement": "mass density", "setting": "360 K, 90000 kPa, x2 = 0.5837", "result": "729.21 ± 1.5", "unit": "kg/m3"}, {"measurement": "mass density", "setting": "360 K, 90000 kPa, x2 = 0.7732", "result": "821 ± 1.7", "unit": "kg/m3"}, {"measurement": "mass density", "setting": "360 K, 100000 kPa, x2 = 0.1744", "result": "611.43 ± 1.2", "unit": "kg/m3"}, {"measurement": "mass density", "setting": "360 K, 100000 kPa, x2 = 0.3863", "result": "670.54 ± 1.4", "unit": "kg/m3"}, {"measurement": "mass density", "setting": "360 K, 100000 kPa, x2 = 0.5837", "result": "742.72 ± 1.5", "unit": "kg/m3"}, {"measurement": "mass density", "setting": "360 K, 100000 kPa, x2 = 0.7732", "result": "837.52 ± 1.7", "unit": "kg/m3"}, {"measurement": "mass density", "setting": "360 K, 120000 kPa, x2 = 0.1744", "result": "627.94 ± 1.3", "unit": "kg/m3"}, {"measurement": "mass density", "setting": "360 K, 120000 kPa, x2 = 0.3863", "result": "690.06 ± 1.4", "unit": "kg/m3"}, {"measurement": "mass density", "setting": "360 K, 120000 kPa, x2 = 0.5837", "result": "766.21 ± 1.6", "unit": "kg/m3"}, {"measurement": "mass density", "setting": "360 K, 120000 kPa, x2 = 0.7732", "result": "866.62 ± 1.8", "unit": "kg/m3"}, {"measurement": "mass density", "setting": "360 K, 140000 kPa, x2 = 0.1744", "result": "642.06 ± 1.3", "unit": "kg/m3"}, {"measurement": "mass density", "setting": "360 K, 140000 kPa, x2 = 0.3863", "result": "706.76 ± 1.4", "unit": "kg/m3"}, {"measurement": "mass density", "setting": "360 K, 140000 kPa, x2 = 0.5837", "result": "786.28 ± 1.6", "unit": "kg/m3"}, {"measurement": "mass density", "setting": "360 K, 140000 kPa, x2 = 0.7732", "result": "891.18 ± 1.9", "unit": "kg/m3"}, {"measurement": "mass density", "setting": "360 K, 160000 kPa, x2 = 0.1744", "result": "654.39 ± 1.3", "unit": "kg/m3"}, {"measurement": "mass density", "setting": "360 K, 160000 kPa, x2 = 0.3863", "result": "721.47 ± 1.5", "unit": "kg/m3"}, {"measurement": "mass density", "setting": "360 K, 160000 kPa, x2 = 0.5837", "result": "803.84 ± 1.7", "unit": "kg/m3"}, {"measurement": "mass density", "setting": "360 K, 160000 kPa, x2 = 0.7732", "result": "912.47 ± 1.9", "unit": "kg/m3"}, {"measurement": "mass density", "setting": "360 K, 180000 kPa, x2 = 0.1744", "result": "665.89 ± 1.4", "unit": "kg/m3"}, {"measurement": "mass density", "setting": "360 K, 180000 kPa, x2 = 0.3863", "result": "734.92 ± 1.5", "unit": "kg/m3"}, {"measurement": "mass density", "setting": "360 K, 180000 kPa, x2 = 0.5837", "result": "819.85 ± 1.7", "unit": "kg/m3"}, {"measurement": "mass density", "setting": "360 K, 180000 kPa, x2 = 0.7732", "result": "931.8 ± 1.9", "unit": "kg/m3"}, {"measurement": "mass density", "setting": "360 K, 200000 kPa, x2 = 0.1744", "result": "676.04 ± 1.4", "unit": "kg/m3"}, {"measurement": "mass density", "setting": "360 K, 200000 kPa, x2 = 0.3863", "result": "746.96 ± 1.5", "unit": "kg/m3"}, {"measurement": "mass density", "setting": "360 K, 200000 kPa, x2 = 0.5837", "result": "833.79 ± 1.7", "unit": "kg/m3"}, {"measurement": "mass density", "setting": "360 K, 200000 kPa, x2 = 0.7732", "result": "948.91 ± 2", "unit": "kg/m3"}, {"measurement": "mass density", "setting": "400 K, 20000 kPa, x2 = 0.3863", "result": "416.94 ± 0.84", "unit": "kg/m3"}, {"measurement": "mass density", "setting": "400 K, 30000 kPa, x2 = 0.1744", "result": "463.97 ± 0.93", "unit": "kg/m3"}, {"measurement": "mass density", "setting": "400 K, 30000 kPa, x2 = 0.3863", "result": "484.73 ± 0.97", "unit": "kg/m3"}, {"measurement": "mass density", "setting": "400 K, 30000 kPa, x2 = 0.5837", "result": "504.63 ± 1", "unit": "kg/m3"}, {"measurement": "mass density", "setting": "400 K, 30000 kPa, x2 = 0.7732", "result": "526.28 ± 1.1", "unit": "kg/m3"}, {"measurement": "mass density", "setting": "400 K, 40000 kPa, x2 = 0.1744", "result": "493.75 ± 1", "unit": "kg/m3"}, {"measurement": "mass density", "setting": "400 K, 40000 kPa, x2 = 0.3863", "result": "524.65 ± 1.1", "unit": "kg/m3"}, {"measurement": "mass density", "setting": "400 K, 40000 kPa, x2 = 0.5837", "result": "558.9 ± 1.1", "unit": "kg/m3"}, {"measurement": "mass density", "setting": "400 K, 40000 kPa, x2 = 0.7732", "result": "600.44 ± 1.2", "unit": "kg/m3"}, {"measurement": "mass density", "setting": "400 K, 50000 kPa, x2 = 0.1744", "result": "515.97 ± 1", "unit": "kg/m3"}, {"measurement": "mass density", "setting": "400 K, 50000 kPa, x2 = 0.3863", "result": "553.29 ± 1.1", "unit": "kg/m3"}, {"measurement": "mass density", "setting": "400 K, 50000 kPa, x2 = 0.5837", "result": "596.39 ± 1.2", "unit": "kg/m3"}, {"measurement": "mass density", "setting": "400 K, 50000 kPa, x2 = 0.7732", "result": "650.25 ± 1.3", "unit": "kg/m3"}, {"measurement": "mass density", "setting": "400 K, 60000 kPa, x2 = 0.1744", "result": "533.68 ± 1.1", "unit": "kg/m3"}, {"measurement": "mass density", "setting": "400 K, 60000 kPa, x2 = 0.3863", "result": "575.8 ± 1.2", "unit": "kg/m3"}, {"measurement": "mass density", "setting": "400 K, 60000 kPa, x2 = 0.5837", "result": "625.2 ± 1.3", "unit": "kg/m3"}, {"measurement": "mass density", "setting": "400 K, 60000 kPa, x2 = 0.7732", "result": "687.92 ± 1.4", "unit": "kg/m3"}, {"measurement": "mass density", "setting": "400 K, 70000 kPa, x2 = 0.1744", "result": "548.87 ± 1.1", "unit": "kg/m3"}, {"measurement": "mass density", "setting": "400 K, 70000 kPa, x2 = 0.3863", "result": "594.51 ± 1.2", "unit": "kg/m3"}, {"measurement": "mass density", "setting": "400 K, 70000 kPa, x2 = 0.5837", "result": "648.89 ± 1.3", "unit": "kg/m3"}, {"measurement": "mass density", "setting": "400 K, 70000 kPa, x2 = 0.7732", "result": "718.31 ± 1.5", "unit": "kg/m3"}, {"measurement": "mass density", "setting": "400 K, 80000 kPa, x2 = 0.1744", "result": "561.96 ± 1.1", "unit": "kg/m3"}, {"measurement": "mass density", "setting": "400 K, 80000 kPa, x2 = 0.3863", "result": "610.56 ± 1.2", "unit": "kg/m3"}, {"measurement": "mass density", "setting": "400 K, 80000 kPa, x2 = 0.5837", "result": "668.81 ± 1.4", "unit": "kg/m3"}, {"measurement": "mass density", "setting": "400 K, 80000 kPa, x2 = 0.7732", "result": "743.76 ± 1.5", "unit": "kg/m3"}, {"measurement": "mass density", "setting": "400 K, 90000 kPa, x2 = 0.1744", "result": "573.37 ± 1.2", "unit": "kg/m3"}, {"measurement": "mass density", "setting": "400 K, 90000 kPa, x2 = 0.3863", "result": "624.68 ± 1.3", "unit": "kg/m3"}, {"measurement": "mass density", "setting": "400 K, 90000 kPa, x2 = 0.5837", "result": "686.29 ± 1.4", "unit": "kg/m3"}, {"measurement": "mass density", "setting": "400 K, 90000 kPa, x2 = 0.7732", "result": "765.81 ± 1.6", "unit": "kg/m3"}, {"measurement": "mass density", "setting": "400 K, 100000 kPa, x2 = 0.1744", "result": "583.87 ± 1.2", "unit": "kg/m3"}, {"measurement": "mass density", "setting": "400 K, 100000 kPa, x2 = 0.3863", "result": "637.16 ± 1.3", "unit": "kg/m3"}]}]}
